32 molecules from patent US20080287430A1, “Furan Compounds Useful As Ep1 Receptor Antagonists” (priority 2005, published 2008) can be followed below.

A value given as a limit tells only on which side of the number the result lay.

The target in the test is T1, human EP1 receptor (Homo sapiens, UniProt P34995).
T1 construct: expressed in transfected cells; host or cells: CHO-K1
T1 sequence (P34995 1-402): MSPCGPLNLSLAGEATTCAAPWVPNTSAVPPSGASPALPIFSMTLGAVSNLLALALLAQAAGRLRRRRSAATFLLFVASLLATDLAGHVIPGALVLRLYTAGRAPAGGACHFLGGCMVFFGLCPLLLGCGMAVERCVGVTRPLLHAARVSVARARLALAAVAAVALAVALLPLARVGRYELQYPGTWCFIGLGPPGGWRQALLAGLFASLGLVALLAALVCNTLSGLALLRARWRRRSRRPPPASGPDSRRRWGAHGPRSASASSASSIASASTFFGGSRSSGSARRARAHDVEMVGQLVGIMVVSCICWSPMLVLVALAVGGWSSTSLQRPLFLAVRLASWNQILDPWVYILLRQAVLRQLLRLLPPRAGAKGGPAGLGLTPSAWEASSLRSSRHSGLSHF
The experiment in a line: human EP1 calcium mobilisation assay. The test is classed as cell-based. The conditions noted are these: human EP1, PGE2-induced calcium mobilisation in CHO-K1 cells; free bases or sodium salts; averages of a number of experiments; read-out: functional pKi value (converted). As to the method: Briefly, the antagonist properties of compounds are assessed by their ability to inhibit the mobilisation of intracellular calcium ([Ca^2+]i) in response to activation of EP1 or EP3 receptors by the natural agonist hormone prostaglandin E2 (PGE2). Increasing concentrations of antagonist reduce the amount of calcium that a given concentration of PGE2 can mobilise. The net effect is to displace the PGE2 concentration-effect curve to higher concentrations of PGE2. The amount of calcium produced is assessed using a calcium-sensitive fluorescent dye such as Fluo-4, AM and a suitable instrument such as a Fluorimetric Imaging Plate Reader (FLIPR). Increasing amounts of [Ca^2+]i produced by receptor activation increase the amount of fluorescence produced by the dye and give rise to an increasing signal. The signal may be detected using the FLIPR instrument and the data generated may be analysed with suitable curve-fitting software.
The human EP1 or EP3 calcium mobilisation assay (hereafter referred to as ‘the calcium assay’) utilises Chinese hamster ovary-K1(CHO-K1) cells into which a stable (pCIN; BioTechniques 20 (1996): 102-110) vector containing either EP1 or EP3 cDNA has previously been transfected. Cells are cultured in suitable flasks containing culture medium such as DMEM:F-12 supplemented with 10% v/v foetal calf serum, 2 mM L-glutamine, 0.25 mg/ml geneticin, 100 μM flurbiprofen and 10 μg/ml puromycin.
For assay, cells are harvested using a proprietary reagent that dislodges cells such as Versene. Cells are re-suspended in a suitable quantity of fresh culture media for introduction into a 384-well plate. Following incubation for 24 hours at 37° C. the culture media is replaced with a medium containing Fluo-4 and the detergent pluronic acid, and a further incubation takes place. Concentrations of compounds are then added to the plate in order to construct concentration-effect curves. This may be performed on the FLIPR in order to assess the agonist properties of the compounds. Concentrations of PGE2 are then added to the plate in order to assess the antagonist properties of the compounds.
The data so generated may be analysed by means of a computerised curve-fitting routine. The concentration of compound that elicits a half-maximal inhibition of the calcium mobilisation induced by PGE2 (pIC50) may then be estimated.
Turning to `CCCOc1ccc(Cl)cc1Cc1ccc(C(=O)O)o1` [Example 1, Sodium 5-{[5-chloro-2-(propyloxy)phenyl]methyl}-2-furancarboxylate], the Ki was below 1 µM.
For the molecule `CC(C)Oc1ccc(Cl)cc1Cc1ccc(C(=O)O)o1` [Example 2, Sodium 5-({5-chloro-2-[(1-methylethyl)oxy]phenyl}methyl)-2-furancarboxylate], the Ki is below 1 µM.
For the molecule `CCC(CC)Oc1ccc(Cl)cc1Cc1ccc(C(=O)O)o1` [Example 4, Sodium 5-({5-chloro-2-[(1-ethylpropyl)oxy]phenyl}methyl)-2-furancarboxylate], the Ki was below 1 µM.
Then `COCCOc1ccc(Cl)cc1Cc1ccc(C(=O)O)o1` [Example 8, Sodium 5-[(5-chloro-2-{[2-(methyloxy)ethyl]oxy}phenyl)methyl]-2-furancarboxylate], with below 1 µM; and `Cc1cc(COc2ccc(Cl)cc2Cc2ccc(C(=O)O)o2)on1` [Example 9, Sodium 5-[(5-chloro-2-{[(3-methyl-5-isoxazolyl)methyl]oxy}phenyl)methyl]-2-furancarboxylate], with below 1 µM; and `CC(C)CCOc1ccc(Cl)cc1Cc1ccc(C(=O)O)o1` [Example 11, Sodium 5-({5-chloro-2-[(3-methylbutyl)oxy]phenyl}methyl)-2-furancarboxylate], with below 1 µM.
Then `O=C(O)c1ccc(Cc2cc(Cl)ccc2OCCc2ccccc2)o1` [Example 12, Sodium 5-({5-chloro-2-[(2-phenylethyl)oxy]phenyl}methyl)-2-furancarboxylate], with below 1 µM.
Then `Cc1cc(C(=O)O)oc1Cc1cc(Cl)ccc1OCC(C)C` [Example 14, Sodium 5-({5-chloro-2-[(2-methylpropyl)oxy]phenyl}methyl)-4-methyl-2-furancarboxylate], with at most 0.01 µM; and `O=C(O)Cc1ccc(Cc2cc(Cl)ccc2OCc2ccccc2)o1` [Example 16, Sodium [5-({5-chloro-2-[(phenylmethyl)oxy]phenyl}methyl)-2-furanyl]acetate], with at most 0.01 µM; and `O=C(O)c1ccc(Cc2cc(Cl)ccc2OCc2ccncc2Cl)o1` [Example 17, Sodium 5-[(5-chloro-2-{[(3-chloro-4-pyridinyl)methyl]oxy}phenyl)methyl]-2-furancarboxylate], with at most 0.01 µM.
Consider `O=C(O)c1ccc(Cc2cc(Cl)ccc2OCc2cc(F)c(F)c(F)c2)o1` [Example 24, Sodium 5-[(5-chloro-2-{[(3,4,5-trifluorophenyl)methyl]oxy}phenyl)methyl]-2-furancarboxylate], for which the Ki is at most 0.01 µM.
Then `O=C(O)c1ccc(Cc2cc(Cl)ccc2OCc2ccccn2)o1` [Example 26, Sodium 5-({5-chloro-2-[(2-pyridinylmethyl)oxy]phenyl}methyl)-2-furancarboxylate], with at most 0.01 µM; and `O=C(O)c1ccc(Cc2cc(Cl)ccc2OCc2cccnc2)o1` [Example 27, Sodium 5-({5-chloro-2-[(3-pyridinylmethyl)oxy]phenyl}methyl)-2-furancarboxylate], with below 1 µM.
Consider `O=C(O)c1ccc(Cc2cc(Cl)ccc2OCc2ccncc2)o1` [Example 28, Sodium 5-({5-chloro-2-[(4-pyridinylmethyl)oxy]phenyl}methyl)-2-furancarboxylate], for which the Ki is at most 0.01 µM.
Then `CC(C)COc1ccc(Cl)cc1Cc1ccc(NC(=O)OC(C)(C)C)o1` [Example 29, 1,1-Dimethylethyl[5-({5-chloro-2-[(2-methylpropyl)oxy]phenyl}methyl)-2-furanyl]carbamate], with below 1 µM.
Then `Cc1cc(NC(=O)OC(C)(C)C)oc1Cc1cc(Cl)ccc1OCC(C)C` [Example 30, 1,1-Dimethylethyl[5({5-chloro-2-[(2-methylpropyl)oxy]phenyl}methyl)-4-methyl-2-furanyl]carbamate], with below 1 µM; and `Cc1cc(C(=O)NCc2ccccc2)oc1Cc1cc(Cl)ccc1OCc1ccccc1` [Example 31, 5-({5-Chloro-2-[(phenylmethyl)oxy]phenyl}methyl)-4-methyl-N-(phenylmethyl)-2-furancarboxamide], with below 1 µM; and `Cc1cc(C(=O)NCc2ccccc2)oc1Cc1cc(Cl)ccc1OCC(C)C` [Example 32, 5-({5-Chloro-2-[(2-methylpropyl)oxy]phenyl}methyl)-4-methyl-N-(phenylmethyl)-2-furancarboxamide], with below 1 µM.
Then `CC(C)COc1ccc(Cl)cc1Cc1ccc(C(=O)Nc2ccccc2)o1` [Example 34, 5-({5-Chloro-2-[(2-methylpropyl)oxy]phenyl}methyl)-N-phenyl-2-furancarboxamide], with below 1 µM; and `CC(C)COc1ccc(Cl)cc1Cc1ccc(C(=O)NCc2ccc(F)cc2)o1` [Example 37], with below 1 µM.
Take `CC(C)COc1ccc(Cl)cc1Cc1ccc(C(=O)NCc2ccc(C(F)(F)F)cc2)o1` [Example 38, 5-({5-Chloro-2-[(2-methylpropyl)oxy]phenyl}methyl)-N-{[4-(trifluoromethyl)phenyl]methyl}-2-furancarboxamide]: the Ki was below 1 µM.
Then `CC(C)COc1ccc(Cl)cc1Cc1ccc(C(=O)NCc2ccc3c(c2)OCO3)o1` [Example 39, N-(1,3-Benzodioxol-5-ylmethyl)-5-({5-chloro-2-[(2-methylpropyl)oxy]phenyl}methyl)-2-furancarboxamide], with below 1 µM; and `COc1ccc(CNC(=O)c2ccc(Cc3cc(Cl)ccc3OCC(C)C)o2)cc1` [Example 40, 5-({5-Chloro-2-[(2-methylpropyl)oxy]phenyl}methyl)-N-{[4-(methyloxy)phenyl]methyl}-2-furancarboxamide], with below 1 µM.
Consider `CC(C)COc1ccc(Cl)cc1Cc1ccc(C(=O)NCc2ccc(Cl)cc2)o1` [Example 41, 5-({5-Chloro-2-[(2-methylpropyl)oxy]phenyl}methyl)-N-[(4-chlorophenyl)methyl]-2-furancarboxamide], for which the Ki was below 1 µM.
Then `CC(C)COc1ccc(Cl)cc1Cc1ccc(C(=O)NCc2ccc(C#N)cc2)o1` [Example 42, 5-({5-Chloro-2-[(2-methylpropyl)oxy]phenyl}methyl)-N-[(4-cyanophenyl)methyl]-2-furancarboxamide], with below 1 µM; and `CC(C)COc1ccc(Cl)cc1Cc1ccc(C(=O)NCc2c(F)cccc2F)o1` [Example 43, 5-({5-Chloro-2-[(2-methylpropyl)oxy]phenyl}methyl)-N-[(2,6-difluorophenyl)methyl]-2-furancarboxamide], with below 1 µM; and `CC(C)COc1ccc(Cl)cc1Cc1ccc(C(=O)NCc2cccc(F)c2F)o1` [Example 44, 5-({5-Chloro-2-[(2-methylpropyl)oxy]phenyl}methyl)-N-[(2,3-difluorophenyl)methyl]-2-furancarboxamide], with below 1 µM.
Then `CC(C)COc1ccc(Cl)cc1Cc1ccc(C(=O)NCc2ccc(-c3cccnc3)cc2)o1` [Example 45, 5-({5-Chloro-2-[(2-methylpropyl)oxy]phenyl}methyl)-N-{[4-(3-pyridinyl)phenyl]methyl}-2-furancarboxamide], with below 1 µM.
Then `CC(C)COc1ccc(Cl)cc1Cc1ccc(C(=O)NCc2ccc(C(N)=O)cc2)o1` [Example 46, N-{[4-(Aminocarbonyl)-phenyl]methyl}-5-({5-chloro-2-[(2-methylpropyl)oxy]phenyl}methyl)-2-furancarboxamide], with below 1 µM; and `CC(C)COc1ccc(Cl)cc1Cc1ccc(C(=O)NCc2cccc3ccccc23)o1` [Example 47, 5-({5-Chloro-2-[(2-methylpropyl)oxy]phenyl}methyl)-N-(1-naphthalenylmethyl)-2-furancarboxamide], with below 1 µM; and `O=C(NCc1ccccc1)c1ccc(Cc2cc(Cl)ccc2OCc2ccccc2)o1` [Example 48, 5-({5-Chloro-2-[(phenylmethyl)oxy]phenyl}methyl)-N-(phenylmethyl)-2-furancarboxamide], with below 1 µM.
Regarding `CC(C)NC(=O)c1ccc(Cc2cc(Cl)ccc2OCc2ccccc2)o1` [Example 49, 5-({5-Chloro-2-[(phenylmethyl)oxy]phenyl}methyl)-N-(1-methylethyl)-2-furancarboxamide], the Ki was below 1 µM.
